Test results as given in patent US20240366639A1, “HETEROCYCLIC GLP-1 AGONISTS” (GASHERBRUM BIO, INC., priority 2021, published 2024).
Read-outs that look alike come from different tables or passages of the source.

Target: T1, GLP-1 Receptor (GLP1R) (Homo sapiens, UniProt P43220)
T1 construct: host or cells: HEK293/GLP1R/CRE-LUC
Assay: GLP-1R agonist cAMP stimulation assay (Method 3)
Type: cell-based
Conditions: HEK293/GLP1R/CRE-LUC cells (HDB), Method 3, 30 min incubation
How it was run: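 HEK293 CRE-Luc cells stably expressing GLP-1R (1000 cells/well) were exposed to ½-log serially diluted compound in DPBS with 0.5 mM IBMX and 0.1% BSA for 30 min at 37 °C. cAMP was quantified by HTRF (cAMP-d2/anti-cAMP cryptate), 1 h at room temperature, read at 665/615 nm.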

[1] = read-out: GLP1R cAMP Stimulation DR: EC50 (nM) [Species: Human, Assay Cell Line: HDB]
[2] = read-out: GLP1R cAMP Stimulation DR: pEC50 (M) [Species: Human, Assay Cell Line: HDB] (converted)

T1 sequence (P43220 24-463): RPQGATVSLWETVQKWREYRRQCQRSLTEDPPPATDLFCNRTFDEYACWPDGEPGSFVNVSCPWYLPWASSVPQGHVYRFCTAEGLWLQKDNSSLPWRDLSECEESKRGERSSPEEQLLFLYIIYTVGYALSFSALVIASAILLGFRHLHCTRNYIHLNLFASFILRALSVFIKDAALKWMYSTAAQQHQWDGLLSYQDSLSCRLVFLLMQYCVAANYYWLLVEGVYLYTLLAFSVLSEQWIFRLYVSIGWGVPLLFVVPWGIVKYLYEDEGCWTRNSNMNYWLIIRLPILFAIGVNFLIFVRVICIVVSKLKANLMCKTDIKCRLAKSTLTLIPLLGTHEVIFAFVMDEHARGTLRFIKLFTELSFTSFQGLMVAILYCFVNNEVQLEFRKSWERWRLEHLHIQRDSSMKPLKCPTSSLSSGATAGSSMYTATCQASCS

Row | Structure (SMILES) | EC50 [1] [nM] | EC50 [2] [nM]
1 | CCP(=O)(CC)c1ccc(-n2ccn(-c3c4c(nn3-c3cc(C)c(F)c(C)c3)CCN(C(=O)c3cc5cc(C6CCOCC6)ccc5n3[C@@]3(c5noc(=O)[nH]5)C[C@@H]3C)[C@H]4C)c2=O)c(F)c1NC [Compound 145a, 3-((1S,2S)-1-(2-((S)-3-(3-(4-(diethylphosphoryl)-2-fluoro-3-(methylamino)phenyl)-2-oxo-2,3-dihydro-1H-imidazol-1-yl)-2-(4-fluoro-3,5-dimethylphenyl)-4-methyl-4,5,6,7-tetrahydro-2H-pyrazolo[4,3-c]pyridine-5-carbonyl)-5-(tetrahydro-2H-pyran-4-yl)-1H-indol-1-yl)-2-methylcyclopropyl)-1,2,4-oxadiazol-5(4H)-one] | < 0.1 | ≤ 0.1
2 | CCP(=O)(CC)c1ccc(-n2ccn(-c3c4c(nn3-c3cc(C)c(F)c(C)c3)CCN(C(=O)c3cc5cc([C@@H]6CCOC(C)(C)C6)ccc5n3[C@@]3(c5noc(=O)[nH]5)C[C@@H]3C)[C@H]4C)c2=O)cc1NC [Compound 146a, 3-((1S,2S)-1-(2-((S)-3-(3-(4-(diethylphosphoryl)-3-(methylamino)phenyl)-2-oxo-2,3-dihydro-1H-imidazol-1-yl)-2-(4-fluoro-3,5-dimethylphenyl)-4-methyl-4,5,6,7-tetrahydro-2H-pyrazolo[4,3-c]pyridine-5-carbonyl)-5-((R)-2,2-dimethyltetrahydro-2H-pyran-4-yl)-1H-indol-1-yl)-2-methylcyclopropyl)-1,2,4-oxadiazol-5(4H)-one] | < 0.1 | ≤ 0.1
3 | CCP(=O)(CC)c1ccc(-n2ccn(-c3c4c(nn3-c3cc(C)c(F)c(C)c3)CCN(C(=O)c3cc5cc([C@H]6CCOC(C)(C)C6)ccc5n3[C@@]3(c5noc(=O)[nH]5)C[C@@H]3C)[C@H]4C)c2=O)cc1NC [Compound 146b, 3-((1S,2S)-1-(2-((S)-3-(3-(4-(diethylphosphoryl)-3-(methylamino)phenyl)-2-oxo-2,3-dihydro-1H-imidazol-1-yl)-2-(4-fluoro-3,5-dimethylphenyl)-4-methyl-4,5,6,7-tetrahydro-2H-pyrazolo[4,3-c]pyridine-5-carbonyl)-5-((S)-2,2-dimethyltetrahydro-2H-pyran-4-yl)-1H-indol-1-yl)-2-methylcyclopropyl)-1,2,4-oxadiazol-5(4H)-one] | < 0.1 | ≤ 0.1
4 | Cc1cc(-n2nc3c(c2-n2ccn(Cc4cccc(P(C)(C)=O)c4)c2=O)[C@H](C)N(C(=O)c2cc4cc(C5CCOCC5)ccc4n2[C@@]2(c4noc(=O)[nH]4)C[C@@H]2C)CC3)cc(C)c1F [Compound 147a, 3-((1S,2S)-1-(2-((S)-3-(3-(3-(dimethylphosphoryl)benzyl)-2-oxo-2,3-dihydro-1H-imidazol-1-yl)-2-(4-fluoro-3,5-dimethylphenyl)-4-methyl-4,5,6,7-tetrahydro-2H-pyrazolo[4,3-c]pyridine-5-carbonyl)-5-(tetrahydro-2H-pyran-4-yl)-1H-indol-1-yl)-2-methylcyclopropyl)-1,2,4-oxadiazol-5(4H)-one] | 0.5 to 5 | 1 to 10
5 | CNc1cc(-n2ccn(-c3c4c(nn3-c3cc(C)c(F)c(C)c3)CCN(C(=O)c3cc5cc(C6CCOCC6)ccc5n3C3(c5noc(=O)[nH]5)CC3)[C@H]4C)c2=O)ccc1P(=O)(C1CC1)C1CC1 [Compound 148a, (S)-3-(1-(2-(3-(3-(4-(dicyclopropylphosphoryl)-3-(methylamino)phenyl)-2-oxo-2,3-dihydro-1H-imidazol-1-yl)-2-(4-fluoro-3,5-dimethylphenyl)-4-methyl-4,5,6,7-tetrahydro-2H-pyrazolo[4,3-c]pyridine-5-carbonyl)-5-(tetrahydro-2H-pyran-4-yl)-1H-indol-1-yl)cyclopropyl)-1,2,4-oxadiazol-5(4H)-one] | < 0.1 | ≤ 0.1
6 | CCP(=O)(CC)c1ccc(-n2ccn(-c3c4c(nn3-c3cc(C)c(F)c(C)c3)CCN(C(=O)c3cc5cc(N6CCOC(C)(C)C6)ccc5n3[C@@]3(c5noc(=O)[nH]5)C[C@@H]3C)[C@H]4C)c2=O)cc1NC [Compound 150a, 3-((1S,2S)-1-(2-((S)-3-(3-(4-(diethylphosphoryl)-3-(methylamino)phenyl)-2-oxo-2,3-dihydro-1H-imidazol-1-yl)-2-(4-fluoro-3,5-dimethylphenyl)-4-methyl-4,5,6,7-tetrahydro-2H-pyrazolo[4,3-c]pyridine-5-carbonyl)-5-(2,2-dimethylmorpholino)-1H-indol-1-yl)-2-methylcyclopropyl)-1,2,4-oxadiazol-5(4H)-one] | 0.1 to 0.2 | 0.1 to 1
